Measured values as given in US8883963B2 (Cadila Healthcare Limited, priority 2007, dated 2014).

Legend:
Human GLP-1 receptor = target: T1, Human GLP-1 receptor (Homo sapiens, UniProt P43220); assay: In vitro Human GLP-1 R agonist activity (cyclic AMP determination) in CHO/human GLP1R cells; format: cell-based
T1 construct: The full-length cDNA was cloned in pcDNA3.1(+); expressed in transfected cells
Description: The novel peptidomimetics were screened for Human GLP-1 receptor (HGLP-1 R) agonist activity (in vitro), using the cAMP cell-based assay, in stably transfected CHO/human GLP1R cells. […] CHO cells were grown in Ham's F12 medium containing L-Glutamine (2 mM), HEPES (25 mM), NaHCO3 (1.1 g/L) and supplemented with NewBorn Calf Serum (NBCS; 10%), Penicillin (50 U/ml (v/v)) and Streptomycin (50 ug/ml (v/v)). Cells were split every 3 days 1:8.
The cDNA encoding the human GLP-1 receptor was isolated by RT-PCR according to standard protocol. The full-length cDNA was cloned in pcDNA3.1(+). […] Clones expressing the receptor were generated by G418 (800 μg/ml active, Sigma) selection. The stable clones were thereafter maintained at 500 ug/ml (G418). The selected clone was used between passages 9-25 for cAMP assays.
The trypsin was inactivated using Ham's F12 medium containing 10% NBCS and the cells were suspended in 2 ml of complete medium. […] The medium was aspirated off from the 12 well plate and the cells were washed once using Ham's F12 (plain). […] The cells were incubated with the test compounds for 30 min in humidified atmosphere and 37° C. After the incubation, the medium was removed and cells were washed once with plain Ham's F12. Subsequently, the cells were lysed by adding 500 ul of ice cold 0.1 N HCl to each well and shaking for 30 minutes at 200 rpm. The cells were then scrapped, the lysate was collected in micro centrifuge tubes and centrifuged at 12000 rpm for 10 min to remove the debris. 300 ul of supernatant from each micro-centrifuge tube was then removed into a glass tube and dried under N2 for 30 min, for cAMP estimation. The total cAMP was estimated from the sample according to the manufacturer's protocol using Cyclic AMP immunoassay kit (R&D systems, Minneapolis. MN). The remaining supernatant is used to determine the protein concentration using micro BCA (Sigma). Data is calculated as percent of control (Vehicle: water) and expressed as Mean±SD.

[1] = Stability in simulated intestinal fluid; format: in vitro ADME; details: 2 μM peptidomimetic, simulated intestinal fluid pH 7.5, 37° C.; for half-life at 2 μM: read-out: half-life (t1/2) when incubated with simulated intestinal fluid
Description: (§1) Reactions were terminated by the addition of TFA/H2O (15 mL, 10% (v/v)). […] The column was equilibrated with TFA/H20, at a flow rate of 1 mL/min.

[2] = Stability in human plasma; format: in vitro ADME; details: 2 μM peptidomimetic, pooled human plasma, 37° C.; for half-life at 2 μM: pH 7.8, read-out: half-life (t1/2) when incubated with human plasma
Description: as §1

DPP IV = DPP IV (Homo sapiens, UniProt P27487); assay: Stability against DPP IV enzyme; format: in vitro ADME; details: 37° C.; for % degradation of peptidomimetics in 24 h when incubated with DPP-IV enzyme: 2 μM peptidomimetic; for half-life at 2 μM: DPP IV enzyme, pH 7.8, 2 μM peptidomimetic, read-out: half-life (t1/2) when incubated with DPP-IV enzyme
DPP IV, sequence (P27487 whole entry, species assumed): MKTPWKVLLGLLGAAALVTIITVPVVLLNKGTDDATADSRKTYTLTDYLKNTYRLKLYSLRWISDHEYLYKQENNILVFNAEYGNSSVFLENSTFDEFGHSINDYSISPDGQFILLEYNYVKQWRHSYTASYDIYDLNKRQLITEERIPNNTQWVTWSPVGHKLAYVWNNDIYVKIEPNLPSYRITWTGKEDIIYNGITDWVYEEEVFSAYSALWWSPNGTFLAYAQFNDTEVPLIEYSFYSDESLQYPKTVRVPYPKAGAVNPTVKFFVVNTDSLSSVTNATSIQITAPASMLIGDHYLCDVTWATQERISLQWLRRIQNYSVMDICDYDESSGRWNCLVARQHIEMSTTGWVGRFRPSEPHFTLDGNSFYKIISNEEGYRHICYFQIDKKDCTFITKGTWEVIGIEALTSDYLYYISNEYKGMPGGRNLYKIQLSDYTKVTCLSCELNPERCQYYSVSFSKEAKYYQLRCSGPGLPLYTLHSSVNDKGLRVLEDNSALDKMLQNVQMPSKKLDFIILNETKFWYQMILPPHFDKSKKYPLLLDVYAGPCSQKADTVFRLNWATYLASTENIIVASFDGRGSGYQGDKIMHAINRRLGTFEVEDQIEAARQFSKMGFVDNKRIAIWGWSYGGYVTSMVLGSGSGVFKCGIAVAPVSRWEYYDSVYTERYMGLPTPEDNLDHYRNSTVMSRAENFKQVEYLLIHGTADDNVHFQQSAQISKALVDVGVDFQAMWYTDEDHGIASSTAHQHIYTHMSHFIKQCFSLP
Description: as §1

[3] = Stability in simulated gastric fluid; format: in vitro ADME; details: 2 μM peptidomimetic, simulated gastric fluid pH 1.5, 37° C.; for half-life at 2 μM: read-out: half-life (t1/2) when incubated with simulated gastric fluid
Description: as §1

[4] = Stability in liver microsomes; format: in vitro ADME; details: 2 μM peptidomimetic, human liver microsomes, 37° C.
Description: as §1

T1 sequence (P43220 24-463): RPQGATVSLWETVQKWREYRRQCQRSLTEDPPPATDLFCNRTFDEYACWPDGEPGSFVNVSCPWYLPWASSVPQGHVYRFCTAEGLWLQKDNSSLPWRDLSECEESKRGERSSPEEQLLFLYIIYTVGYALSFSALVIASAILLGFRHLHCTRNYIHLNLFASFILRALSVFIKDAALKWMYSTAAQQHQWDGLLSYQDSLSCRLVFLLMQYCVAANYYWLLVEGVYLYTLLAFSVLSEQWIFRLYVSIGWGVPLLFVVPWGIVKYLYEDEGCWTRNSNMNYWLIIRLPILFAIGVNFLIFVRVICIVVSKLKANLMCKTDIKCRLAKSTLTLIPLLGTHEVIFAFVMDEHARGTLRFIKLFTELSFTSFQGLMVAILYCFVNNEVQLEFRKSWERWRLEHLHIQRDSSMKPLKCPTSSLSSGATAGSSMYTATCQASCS

Row | Structure (SMILES) | Human GLP-1 R activity (cAMP release), % activity with respect to control (Human GLP-1 receptor; 1 nM test compound) | Human GLP-1 R activity (cAMP release), % activity with respect to control (Human GLP-1 receptor; 10 nM test compound) | Human GLP-1 R activity (cAMP release), % activity with respect to control (Human GLP-1 receptor; 100 nM test compound) | Human GLP-1 R activity (cAMP release), % activity with respect to control (Human GLP-1 receptor; 1 μM test compound) | Human GLP-1 R activity (cAMP release), % activity with respect to control (Human GLP-1 receptor; 10 μM test compound) | % degradation of peptidomimetics in 24 h when incubated with simulated intestinal fluid [1] | half-life at 2 μM [1] | % degradation of peptidomimetics in 24 h when incubated with human plasma [2] | half-life at 2 μM [2] | % degradation of peptidomimetics in 24 h when incubated with DPP-IV enzyme (DPP IV) | half-life at 2 μM (DPP IV) | % degradation of peptidomimetics in 24 h when incubated with simulated gastric fluid [3] | half-life at 2 μM [3] | half-life (t1/2) when incubated with liver microsomes [4] | % degradation of peptidomimetics in 24 h when incubated with liver microsomes [4]
1 | CCc1cc(OC)ccc1-c1ccc(CC(CNC(CCCc2ccccc2F)C(N)=O)NC[C@H](CC(=O)O)NC(=O)[C@H](CO)NC(=O)[C@@H](NC(=O)C(C)(Cc2ccccc2F)NC(=O)[C@@H](NC(=O)CNC(=O)[C@H](CCC(N)=O)NC(=O)C(C)(C)NC(=O)[C@@H](N)Cc2c[nH]cn2)[C@H](C)O)[C@H](C)O)cc1 (single isomer, unassigned) [compound 203] | 86 ± 0.11% | 99 ± 0.09% | 99 ± 0.06% | 99 ± 0.14% | 99 ± 0.19% | 00% | > 24 h | 00% | > 24 h | 00% | > 24 h | 00% | > 24 h | (5) h | 31%
2 | CCc1cc(OC)ccc1-c1ccc(CC(NC(=O)[C@H](CC(=O)O)NC(=O)[C@H](CO)NC(=O)[C@@H](NC(=O)C(C)(Cc2ccccc2F)NC(=O)[C@@H](NC(=O)CNC(=O)[C@H](CC(C(F)(F)F)C(F)(F)F)NC(=O)C(C)(C)NC(=O)[C@@H](N)Cc2c[nH]cn2)[C@@H](C)O)[C@H](C)O)C(=O)NC(CCCc2ccccc2F)C(N)=O)cc1 (single isomer, unassigned) [compound 224] | 99 ± 0.06% | 99 ± 0.06% | 99 ± 0.08% | 99 ± 0.10% | 99 ± 0.12% | 00% | > 24 h | 00% | > 24 h | 00% | > 24 h | 00% | > 24 h | (5) h | 26%
